# Results reported in ChEMBL document CHEMBL3885881, “DrugMatrix”.
# Species: Rattus norvegicus
# Test: DrugMatrix - Regimen: Daily Repeat
# Assay type: toxicity, organism-based, Sprague-Dawley
# Parameters: regimen Daily Repeat, gender Male, age 6-8 weeks
# Conditions: in vivo, po, route oral GAVAGE, […]; for ABSOLUTE BASOPHIL / ABSOLUTE EOSINOPHIL / ABSOLUTE LYMPHOCYTE / ABSOLUTE MONOCYTE / ABSOLUTE SEGMENTED NEUTROPHIL / BASOPHIL / EOSINOPHIL / ERYTHROCYTE COUNT / HEMATOCRIT / HEMOGLOBIN / LEUKOCYTE COUNT / LYMPHOCYTE / MEAN CORPUSCULAR HEMOGLOBIN / MEAN CORPUSCULAR HEMOGLOBIN CONCENTRATION / MEAN CORPUSCULAR VOLUME / MONOCYTE / NEUTROPHIL / NUCLEATED RED BLOOD CELLS / PLATELET COUNT: tissue Blood; for ALANINE AMINOTRANSFERASE / ALBUMIN / ALKALINE PHOSPHATASE / ASPARTATE AMINOTRANSFERASE / BLOOD UREA NITROGEN / CARBON DIOXIDE / CHLORIDE / CHOLESTEROL / CREATINE PHOSPHOKINASE / CREATININE / GLUCOSE / LACTATE DEHYDROGENASE / LIPASE / PHOSPHORUS / POTASSIUM / SODIUM / TOTAL BILIRUBIN / TOTAL PROTEIN / URIC ACID: tissue Plasma
# [1] = 25 mg/kg, 72 h, dose level Low, time 3 day
# [2] = 25 mg/kg, 120 h, dose level Low, time 5 day
# [3] = 100 mg/kg, 72 h, dose level High, time 3 day
# [4] = 100 mg/kg, 120 h, dose level High, time 5 day
smiles,measurement,setting,value
CN(C)CCCN1c2ccccc2Sc2ccccc21 [PROMAZINE],ABSOLUTE BASOPHIL,[1],0 CELLS/uL
same,ABSOLUTE EOSINOPHIL,[1],145.33 CELLS/uL
same,ABSOLUTE LYMPHOCYTE,[1],11142.33 CELLS/uL
same,ABSOLUTE MONOCYTE,[1],92 CELLS/uL
same,ABSOLUTE SEGMENTED NEUTROPHIL,[1],1153.67 CELLS/uL
same,BASOPHIL,[1],0%
same,EOSINOPHIL,[1],0.67%
same,ERYTHROCYTE COUNT,[1],5.31 x10E6/uL
same,HEMATOCRIT,[1],33.93%
same,HEMOGLOBIN,[1],13.5 G/DL
same,LEUKOCYTE COUNT,[1],12.53 x10E3/uL
same,LYMPHOCYTE,[1],87.67%
same,MEAN CORPUSCULAR HEMOGLOBIN,[1],25.47 pg
same,MEAN CORPUSCULAR HEMOGLOBIN CONCENTRATION,[1],39.77 G/DL
same,MEAN CORPUSCULAR VOLUME,[1],63.93 fL
same,MONOCYTE,[1],1.33%
same,NEUTROPHIL,[1],10.33%
same,NUCLEATED RED BLOOD CELLS,[1],0.67 /100WBC
same,PLATELET COUNT,[1],1124.33 x10E3/uL
same,ALANINE AMINOTRANSFERASE,[1],95 u/L
same,ALBUMIN,[1],4.03 G/DL
same,ALKALINE PHOSPHATASE,[1],542.33 u/L
same,ASPARTATE AMINOTRANSFERASE,[1],104 u/L
same,BLOOD UREA NITROGEN,[1],14 mg/dL
same,CARBON DIOXIDE,[1],32 mmol/L
same,CHLORIDE,[1],101.67 MEQ/L
same,CHOLESTEROL,[1],76.67 mg/dL
same,CREATINE PHOSPHOKINASE,[1],359.33 u/L
same,CREATININE,[1],0.17 mg/dL
same,GLUCOSE,[1],185.67 mg/dL
same,LACTATE DEHYDROGENASE,[1],147.67 u/L
same,LIPASE,[1],9.33 u/L
same,PHOSPHORUS,[1],12.17 mg/dL
same,POTASSIUM,[1],6.17 MEQ/L
same,SODIUM,[1],143.27 MEQ/L
same,TOTAL BILIRUBIN,[1],0.17 mg/dL
same,TOTAL PROTEIN,[1],5.57 G/DL
same,URIC ACID,[1],1.23 mg/dL
same,ABSOLUTE BASOPHIL,[2],0 CELLS/uL
same,ABSOLUTE EOSINOPHIL,[2],84.33 CELLS/uL
same,ABSOLUTE LYMPHOCYTE,[2],7389.33 CELLS/uL
same,ABSOLUTE MONOCYTE,[2],65.33 CELLS/uL
same,ABSOLUTE SEGMENTED NEUTROPHIL,[2],894.33 CELLS/uL
same,BASOPHIL,[2],0%
same,EOSINOPHIL,[2],1%
same,ERYTHROCYTE COUNT,[2],5.37 x10E6/uL
same,HEMATOCRIT,[2],34.2%
same,HEMOGLOBIN,[2],13.47 G/DL
same,LEUKOCYTE COUNT,[2],8.43 x10E3/uL
same,LYMPHOCYTE,[2],88.67%
same,MEAN CORPUSCULAR HEMOGLOBIN,[2],25.1 pg
same,MEAN CORPUSCULAR HEMOGLOBIN CONCENTRATION,[2],39.4 G/DL
same,MEAN CORPUSCULAR VOLUME,[2],63.67 fL
same,MONOCYTE,[2],0.67%
same,NEUTROPHIL,[2],9.67%
same,NUCLEATED RED BLOOD CELLS,[2],0.33 /100WBC
same,PLATELET COUNT,[2],1228.67 x10E3/uL
same,ALANINE AMINOTRANSFERASE,[2],54.33 u/L
same,ALBUMIN,[2],4.17 G/DL
same,ALKALINE PHOSPHATASE,[2],463.67 u/L
same,ASPARTATE AMINOTRANSFERASE,[2],73.33 u/L
same,BLOOD UREA NITROGEN,[2],15 mg/dL
same,CARBON DIOXIDE,[2],28.33 mmol/L
same,CHLORIDE,[2],103.33 MEQ/L
same,CHOLESTEROL,[2],61.67 mg/dL
same,CREATINE PHOSPHOKINASE,[2],324.67 u/L
same,CREATININE,[2],0.27 mg/dL
same,GLUCOSE,[2],188.67 mg/dL
same,LACTATE DEHYDROGENASE,[2],154 u/L
same,LIPASE,[2],10.33 u/L
same,PHOSPHORUS,[2],12.03 mg/dL
same,POTASSIUM,[2],5.86 MEQ/L
same,SODIUM,[2],145.6 MEQ/L
same,TOTAL BILIRUBIN,[2],0.23 mg/dL
same,TOTAL PROTEIN,[2],5.97 G/DL
same,URIC ACID,[2],1.8 mg/dL
same,ABSOLUTE BASOPHIL,[3],0 CELLS/uL
same,ABSOLUTE EOSINOPHIL,[3],0 CELLS/uL
same,ABSOLUTE LYMPHOCYTE,[3],15637.67 CELLS/uL
same,ABSOLUTE MONOCYTE,[3],123 CELLS/uL
same,ABSOLUTE SEGMENTED NEUTROPHIL,[3],572.67 CELLS/uL
same,BASOPHIL,[3],0%
same,EOSINOPHIL,[3],0%
same,ERYTHROCYTE COUNT,[3],6.09 x10E6/uL
same,HEMATOCRIT,[3],37.23%
same,HEMOGLOBIN,[3],15.1 G/DL
same,LEUKOCYTE COUNT,[3],16.33 x10E3/uL
same,LYMPHOCYTE,[3],96%
same,MEAN CORPUSCULAR HEMOGLOBIN,[3],24.83 pg
same,MEAN CORPUSCULAR HEMOGLOBIN CONCENTRATION,[3],40.57 G/DL
same,MEAN CORPUSCULAR VOLUME,[3],61.17 fL
same,MONOCYTE,[3],0.67%
same,NEUTROPHIL,[3],3.33%
same,NUCLEATED RED BLOOD CELLS,[3],0 /100WBC
same,PLATELET COUNT,[3],1276.67 x10E3/uL
same,ALANINE AMINOTRANSFERASE,[3],60.33 u/L
same,ALBUMIN,[3],4.43 G/DL
same,ALKALINE PHOSPHATASE,[3],366.67 u/L
same,ASPARTATE AMINOTRANSFERASE,[3],101.33 u/L
same,BLOOD UREA NITROGEN,[3],17 mg/dL
same,CARBON DIOXIDE,[3],28 mmol/L
same,CHLORIDE,[3],101.67 MEQ/L
same,CHOLESTEROL,[3],88 mg/dL
same,CREATINE PHOSPHOKINASE,[3],986.67 u/L
same,CREATININE,[3],0.37 mg/dL
same,GLUCOSE,[3],131.67 mg/dL
same,LACTATE DEHYDROGENASE,[3],335 u/L
same,LIPASE,[3],12.67 u/L
same,PHOSPHORUS,[3],11.5 mg/dL
same,POTASSIUM,[3],6.17 MEQ/L
same,SODIUM,[3],143.73 MEQ/L
same,TOTAL BILIRUBIN,[3],0.23 mg/dL
same,TOTAL PROTEIN,[3],6.1 G/DL
same,URIC ACID,[3],1.2 mg/dL
same,ABSOLUTE BASOPHIL,[4],0 CELLS/uL
same,ABSOLUTE EOSINOPHIL,[4],74.67 CELLS/uL
same,ABSOLUTE LYMPHOCYTE,[4],9603.33 CELLS/uL
same,ABSOLUTE MONOCYTE,[4],53.33 CELLS/uL
same,ABSOLUTE SEGMENTED NEUTROPHIL,[4],302 CELLS/uL
same,BASOPHIL,[4],0%
same,EOSINOPHIL,[4],0.67%
same,ERYTHROCYTE COUNT,[4],5.25 x10E6/uL
same,HEMATOCRIT,[4],32.53%
same,HEMOGLOBIN,[4],13.13 G/DL
same,LEUKOCYTE COUNT,[4],10.03 x10E3/uL
same,LYMPHOCYTE,[4],95.67%
same,MEAN CORPUSCULAR HEMOGLOBIN,[4],24.97 pg
same,MEAN CORPUSCULAR HEMOGLOBIN CONCENTRATION,[4],40.37 G/DL
same,MEAN CORPUSCULAR VOLUME,[4],61.93 fL
same,MONOCYTE,[4],0.67%
same,NEUTROPHIL,[4],3%
same,NUCLEATED RED BLOOD CELLS,[4],0 /100WBC
same,PLATELET COUNT,[4],1046.33 x10E3/uL
same,ALANINE AMINOTRANSFERASE,[4],59.33 u/L
same,ALBUMIN,[4],4.03 G/DL
same,ALKALINE PHOSPHATASE,[4],341.67 u/L
same,ASPARTATE AMINOTRANSFERASE,[4],113 u/L
same,BLOOD UREA NITROGEN,[4],19 mg/dL
same,CARBON DIOXIDE,[4],25.67 mmol/L
same,CHLORIDE,[4],105 MEQ/L
same,CHOLESTEROL,[4],57 mg/dL
same,CREATINE PHOSPHOKINASE,[4],469 u/L
same,CREATININE,[4],0.22 mg/dL
same,GLUCOSE,[4],246.33 mg/dL
same,LACTATE DEHYDROGENASE,[4],616 u/L
same,LIPASE,[4],10.33 u/L
same,PHOSPHORUS,[4],12.93 mg/dL
same,POTASSIUM,[4],5.03 MEQ/L
same,SODIUM,[4],147.63 MEQ/L
same,TOTAL BILIRUBIN,[4],0.2 mg/dL
same,TOTAL PROTEIN,[4],5.5 G/DL
same,URIC ACID,[4],2.07 mg/dL
